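The compound was tested at five concentrations on cells cultured in 96-well plates, with a 48-hour exposure period. Here, GI50 denotes the concentration required for 50% inhibition of growth.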 Active and inactive are the calls of the source. Rule as the data show it: active = GI50 up to about 1.1 µM and inactive = higher.
Assays:
Assay in all cases: NCI-60 cell line screen, 48 h
CAKI-1 = tested on: CAKI-1
COLO 205 = tested on: COLO 205
DU-145 = tested on: DU-145
HCT-116 = tested on: HCT-116
HL-60 = tested on: HL-60
HOP-62 = tested on: HOP-62
HOP-92 = tested on: HOP-92
LOX IMVI = tested on: LOX IMVI
M14 = tested on: M14
MDA-MB-231 = tested on: MDA-MB-231
MDA-MB-435 = tested on: MDA-MB-435
MOLT-4 = tested on: MOLT-4
NCI-H460 = tested on: NCI-H460
OVCAR-5 = tested on: OVCAR-5
RXF 393 = tested on: RXF 393
SF-268 = tested on: SF-268
SF-539 = tested on: SF-539
SN12C = tested on: SN12C
SR = tested on: SR
U-251 = tested on: U-251

Measured: GI50

NC1CC(=O)c2c(I)sc(I)c21 (stereo not given)
inactive: CAKI-1 11.6 µM | COLO 205 14.9 µM | DU-145 24 µM | HCT-116 12.4 µM | HL-60 4.24 µM | HOP-62 19.1 µM | HOP-92 22.8 µM | LOX IMVI 13.3 µM | M14 27.2 µM | MDA-MB-231 20 µM | MDA-MB-435 16.4 µM | MOLT-4 12.1 µM | NCI-H460 17.7 µM | OVCAR-5 24.1 µM | RXF 393 21.4 µM | SF-268 21 µM | SF-539 8.89 µM | SN12C 27.3 µM | SR 13.4 µM | U-251 9.79 µM

CCc1ccc2nccc(NCCCN(C)C)c2c1[N+](=O)[O-]
inactive: CAKI-1 46.6 µM | COLO 205 30.7 µM | DU-145 > 100 µM | HCT-116 41.2 µM | HL-60 > 100 µM | HOP-62 > 100 µM | HOP-92 > 100 µM | LOX IMVI 62.7 µM | M14 28.8 µM | MDA-MB-231 56.1 µM | MDA-MB-435 62.2 µM | MOLT-4 > 100 µM | NCI-H460 > 100 µM | OVCAR-5 33.5 µM | RXF 393 71.8 µM | SF-268 > 100 µM | SF-539 > 10 µM | SN12C 60.4 µM | SR > 100 µM | U-251 > 100 µM

CCOP(=O)(OCC)/C(C#N)=C/c1[nH]cnc1C
inactive: CAKI-1 > 100 µM | COLO 205 > 100 µM | DU-145 > 100 µM | HCT-116 > 100 µM | HL-60 > 100 µM | HOP-62 > 100 µM | HOP-92 > 100 µM | LOX IMVI > 100 µM | M14 > 100 µM | MDA-MB-231 > 100 µM | MDA-MB-435 > 100 µM | MOLT-4 > 100 µM | NCI-H460 > 100 µM | OVCAR-5 > 100 µM | RXF 393 > 100 µM | SF-268 > 100 µM | SF-539 49.5 µM | SN12C > 100 µM | SR > 100 µM | U-251 > 100 µM

COc1ccc2c(c1)N(CCC1CCCCN1C)c1ccccc1S2 (stereo not given) [OXYRIDAZINE]
inactive: CAKI-1 9.48 µM | COLO 205 12.3 µM | DU-145 13.2 µM | HCT-116 12.8 µM | HL-60 9.14 µM | HOP-62 15.8 µM | HOP-92 9.08 µM | LOX IMVI 9.57 µM | M14 3.13 µM | MDA-MB-231 11 µM | MDA-MB-435 7.62 µM | MOLT-4 4.85 µM | NCI-H460 7.46 µM | OVCAR-5 15.2 µM | RXF 393 7.18 µM | SF-268 12.4 µM | SF-539 23.1 µM | SN12C 13.4 µM | SR 5.73 µM | U-251 11.3 µM

Cc1[nH]c2ccccc2c1/C=N/c1ccc(/N=C/c2c(C)[nH]c3ccccc23)cc1
inactive: CAKI-1 38.7 µM | COLO 205 12.9 µM | DU-145 37.4 µM | HCT-116 17.5 µM | HL-60 14.7 µM | HOP-62 25.1 µM | HOP-92 25.5 µM | LOX IMVI 19.1 µM | M14 71.3 µM | MDA-MB-231 32.5 µM | MDA-MB-435 19.7 µM | MOLT-4 18.9 µM | NCI-H460 41.2 µM | OVCAR-5 > 100 µM | RXF 393 53 µM | SF-268 50 µM | SF-539 21.4 µM | SN12C 61.2 µM | SR 19.2 µM | U-251 29.6 µM
